In data set [1] the target is T1, [3H]-emopamil binding site (Cavia porcellus, UniProt Q60490).
T1 construct: from tissue; host or cells: guinea pig liver membranes
T1 sequence (Q60490 1-229): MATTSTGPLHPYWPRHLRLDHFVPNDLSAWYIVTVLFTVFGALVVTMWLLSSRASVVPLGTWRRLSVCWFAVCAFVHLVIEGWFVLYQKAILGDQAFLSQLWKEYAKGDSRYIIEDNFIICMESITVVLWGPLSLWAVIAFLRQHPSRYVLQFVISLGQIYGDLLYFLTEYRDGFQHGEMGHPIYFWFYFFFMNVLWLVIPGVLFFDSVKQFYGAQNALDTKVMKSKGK
In words: 3H-Emopamil binding to guinea pig liver membranes. The conditions noted are these: displacement of 0.96 nM (-)-3H-emopamil, 60 minutes at 37° C. How it is done:
^3H-Emopamil Binding to Guinea Pig Liver Membranes
The method of (−)-^3H-emopamil binding was a modification of Zech, C., Staudinger R., Mühlbacher, J. and Glossmann, H. Novel sites for phenylalkylamines: characterization of a sodium-sensitive drug receptor with (−)-^3H-emopamil. Eur. J. Pharm. 208: 119-130, 1991.
The reaction mixture contained:
Assay buffer: 10 mM Tris-HCl, 0.1 mM phenylmethylsulfonyl fluoride (PMSF), 0.2% bovine serum albumin (BSA), pH 7.4 at 4° C.
Radioligand: 0.96 nM (−)-^3H-emopamil (Amersham).
Guinea pig liver membranes: 40 mg/mL original wet weight.
This mixture was incubated for 60 minutes at 37° C. The incubation was terminated by filtering with a Brandel Cell Harvester over Whatman GF/C filters that had been soaked for at least 120 minutes in 0.3% polyethylenimine (PEI) and washed three times with 5 mL of wash buffer containing 10 mM Tris-HCl, 10 mM MgCl2, 0.2% BSA, pH 7.4 at 25° C. Specific binding was defined with 10 μM emopamil. […]
Guinea-pig liver membrane preparation: Male guinea pigs were sacrificed by CO2 asphyxiation with dry ice. The livers were quickly excised and weighed and rinsed in membrane preparation buffer containing 10 mM Hepes, 1 mM Tris base-EDTA, 250 mM […] Teflon-glass homogenizer with three strokes on ice. […]

Data set [2] concerns L-type voltage sensitive calcium channels (3H-D888 binding site). In words: 3H-D-888 binding to rat brain cortical membranes. The conditions noted are these: displacement of 3H-D888, rat cortical membranes, 60 minutes at 25° C. How it is done: ^3H-D-888 Binding to Rat Brain Cortical Membranes
The method of ^3H-D-888 binding was a modification of Reynolds, I. J., Snowman, A. M. and Synder, S. H. (−)-[^3H] Desmethoxyverapamil labels multiple calcium channel modular receptors in brain and skeletal muscle membranes: differentiation by temperature and dihydropyridines. J. Pharmacol. Exp. Ther. 237: no.3, 731-738, 1986.
The assay tubes contained the following: assay buffer: 50 mM Hepes, 0.2% BSA, pH 7.4 radioligand: 1 πM ^3H-D888 (Amersham) rat cortical membranes: 6 mg/ml original wet weight
This mixture was incubated for 60 minutes at 25° C. The assay was terminated by filtering with a Brandel Cell Harvester over Whatman GF/C filters that had been soaked for at least 120 minutes in 0.3% polyethylenamine (PEI) and washed three times with 5 mL of wash buffer containing 20 mM Hepes, 20 mM MgCl2, pH 7.4. Specific binding was measured with 10 μM methoxyverapamil (D-600). This assay was used to determine in vitro selectivity of compounds vs. L-type voltage sensitive calcium channels, i.e high affinity for the ^3H-D888 binding site would show a lack of selectivity. For example the compound of Example 4 gave a value of about 19.000 nM in this test.
Rat brain cortical membrane preparation: Male Sprague-Dawley Rats were sacrificed by decapitation and the brains were quickly excised. […]

Counter-ions that a name gives are not always drawn.

What is called melting point is the temperature of the solid-liquid transition. Usually IC50 stands for the concentration that gives 50% inhibition.

`c1ccc2c(c1)CCCC2N1CCCNCC1` (centres unmarked) (as salt: salt) [Example 2, N-(1,2,3,4-Tetrahydro-1-naphthalenyl)homopiperazine] displayed a melting point of 107 to 109.4 °C.

`CC(C)N1CCCN(C2CCCc3ccccc32)CC1` (centres unmarked) (as salt: hydrochloride) [Example 13, 1-Isopropyl-4-(1,2,3,4-tetrahydro-1-naphthalenyl)homopiperazine] gave a melting point of 149.5 to 151 °C.

With `CN1CCCN([C@H]2CCCc3ccccc32)CC1` [Example 4, S(+) 1-Methyl-4-(1,2,3,4-tetrahydro-1-naphthalenyl)homopiperazine], the IC50 in data set [1] is 17 nM. In addition, in data set [2], the “value in 3H-D-888 binding test (in vitro selectivity vs. L-type VSCC)” value was “about 19.000 nM”.

Consider `COc1cccc2c1CCCC2N1CCCN(C)CC1` (centres unmarked) (as salt: hydrochloride) [Example 7, 1-Methyl-4-(5-methoxy-1,2,3,4-tetrahydro-1-naphthalenyl)homopiperazine], for which the melting point lay in the range of 172.2 to 176.6 °C.

In turn, `CCc1ccc2c(c1)CCCC2N1CCCN(C)CC1` (centres unmarked) (as salt: salt) [Example 25, 1-Methyl-4-(6-ethyl-1,2,3,4-tetrahydro-1-naphthalenyl)homopiperazine] gave a melting point of 131.5 to 132.8 °C.

Compound `CN1CCCN(C2CCCc3cc(F)ccc32)CC1` (centres unmarked) (as salt: salt) [Example 16, 1-Methyl-4-(6-fluoro-1,2,3,4-tetrahydro-1-naphthalenyl)homopiperazine] yielded a melting point of 78.8 to 79.5 °C.

`CN1CCCN(C2CCCc3ccccc32)CC1` (centres unmarked) (as salt: maleate) [Example 1, 1-Methyl-4-(1,2,3,4-tetrahydro-1-naphthalenyl)homopiperazine] had a melting point of 125.4 to 126.3 °C.
